From patent US11040028B2, “Penicinotam derivative, preparation method and use thereof” (OCEAN UNIVERSITY OF CHINA, priority 2017, dated 2021)

system: cardiac fibroblast RAT-iCell-C002; assay: Anti-fibrosis activity test: inhibition of proliferation of cardiac fibroblast RAT-iCell-C002 (CCK-8); assay type: cell-based; conditions: Cardiac fibroblast, 48 h, cardiac fibroblast RAT-iCell-C002, CCK-8, 48 hours
Summary of the method: (§1)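 48 h compound treatment of fibroblast-type cells seeded at 2×10^4 cells/mL, 37° C, 5% CO2; viability by CCK-8 (2 h, A450). Inhibition rate calculated against blank control, IC50 by curve fitting; pirfenidone served as reference.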

Compound | IC50 [mM]
O=C1c2c(nc3cc(F)ccc3c2OCc2ccc(Cl)cc2)-c2cccn21 [Compound 496b, 9-((4-chlorobenzyl)oxy)-6-fluoro-10H-pyrrolizino[1,2-b]quinolin-10-one] | 0.05 to 5
O=C1c2c(nc3ccc(F)cc3c2OCCc2ccccc2)-c2cccn21 [Compound 141b, 7-Fluoro-9-phenethoxy-10H-pyrrolizino[1,2-b]quinolin-10-one] | 0.05 to 5
O=C1c2c(n(Cc3cccc(F)c3)c3c(F)cccc3c2=O)-c2cccn21 [Compound 458a, 5-Fluoro-4-(3-fluorobenzyl)-9H-pyrrolizino[1,2-b]quinoline-9,10(4H)-dione] | 0.05 to 5
N#Cc1cccc(COc2c3c(nc4ccccc24)-c2cccn2C3=O)c1 [Compound 597b, 3-(((10-oxo-10H-pyrrolizino[1,2-b]quinolin-9-yl)oxy)methyl)benzonitrile] | 0.05 to 5
CC(C)=CCn1c2c(c(=O)c3cc(F)ccc31)C(=O)n1cccc1-2 [Compound 112a, 7-Fluoro-4-(3-methylbut-2-en-1-yl)-9H-pyrrolizino[1,2-b]quinoline-9,10(4H)-dione] | 0.05 to 5

system: BHK-21 cells; assay: Anti-fibrosis activity test: inhibition of BHK-21 cell proliferation (CCK-8); assay type: cell-based; conditions: Mesocricetus auratus, BHK-21, 48 h, CCK-8, 48 hours after administration
Summary of the method: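 Proliferation of BHK-21 cells is measured by CCK-8 at 450 nm following 48 h compound exposure at several concentrations. Inhibition is expressed relative to blank control and IC50 is computed from it.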

Compound | IC50 [mM]
O=C1c2c(nc3cc(F)ccc3c2OCc2ccc(Cl)cc2)-c2cccn21 [Compound 496b, 9-((4-chlorobenzyl)oxy)-6-fluoro-10H-pyrrolizino[1,2-b]quinolin-10-one] | 0.05 to 5
O=C1c2c(nc3ccc(F)cc3c2OCCc2ccccc2)-c2cccn21 [Compound 141b, 7-Fluoro-9-phenethoxy-10H-pyrrolizino[1,2-b]quinolin-10-one] | 0.05 to 5
O=C1c2c(n(Cc3cccc(F)c3)c3c(F)cccc3c2=O)-c2cccn21 [Compound 458a, 5-Fluoro-4-(3-fluorobenzyl)-9H-pyrrolizino[1,2-b]quinoline-9,10(4H)-dione] | < 0.05
N#Cc1cccc(COc2c3c(nc4ccccc24)-c2cccn2C3=O)c1 [Compound 597b, 3-(((10-oxo-10H-pyrrolizino[1,2-b]quinolin-9-yl)oxy)methyl)benzonitrile] | 0.05 to 5
CC(C)=CCn1c2c(c(=O)c3cc(F)ccc31)C(=O)n1cccc1-2 [Compound 112a, 7-Fluoro-4-(3-methylbut-2-en-1-yl)-9H-pyrrolizino[1,2-b]quinoline-9,10(4H)-dione] | 5 to 20

system: NF-κB; assay: Immunological activity test: inhibition of NF-κB activity; assay type: cell-based; conditions: initial concentration of 30 μM; a/b isomers given as first/second symbol; read-out: IC50 (μM), inhibitory activity against NF-κB
Summary of the method: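 Compounds were first screened for inhibition of NF-κB activity at 30 μM, with parthenolide as the positive control. IC50 values were then determined for the compounds by further analysis of the assay data.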

Compound | IC50 [µM]
O=C1c2c(nc3cc(F)ccc3c2OCc2ccc(Cl)cc2)-c2cccn21 [Compound 496b, 9-((4-chlorobenzyl)oxy)-6-fluoro-10H-pyrrolizino[1,2-b]quinolin-10-one] | 10 to 50
O=C1c2c(nc3ccc(F)cc3c2OCCc2ccccc2)-c2cccn21 [Compound 141b, 7-Fluoro-9-phenethoxy-10H-pyrrolizino[1,2-b]quinolin-10-one] | 0.1 to 1
O=C1c2c(n(Cc3cccc(F)c3)c3c(F)cccc3c2=O)-c2cccn21 [Compound 458a, 5-Fluoro-4-(3-fluorobenzyl)-9H-pyrrolizino[1,2-b]quinoline-9,10(4H)-dione] | 0.1 to 1
N#Cc1cccc(COc2c3c(nc4ccccc24)-c2cccn2C3=O)c1 [Compound 597b, 3-(((10-oxo-10H-pyrrolizino[1,2-b]quinolin-9-yl)oxy)methyl)benzonitrile] | 1 to 10
CC(C)=CCn1c2c(c(=O)c3cc(F)ccc31)C(=O)n1cccc1-2 [Compound 112a, 7-Fluoro-4-(3-methylbut-2-en-1-yl)-9H-pyrrolizino[1,2-b]quinoline-9,10(4H)-dione] | 10 to 50

system: human fibrosarcoma cells HT-1080; assay: Anti-fibrosis activity test: inhibition of proliferation of human fibrosarcoma cells HT-1080 (CCK-8); assay type: cell-based; conditions: Homo sapiens, HT-1080, 48 h, human fibrosarcoma cells HT-1080, CCK-8, 48 hours
Summary of the method: as §1

Compound | IC50 [mM]
O=C1c2c(nc3cc(F)ccc3c2OCc2ccc(Cl)cc2)-c2cccn21 [Compound 496b, 9-((4-chlorobenzyl)oxy)-6-fluoro-10H-pyrrolizino[1,2-b]quinolin-10-one] | 0.05 to 5
O=C1c2c(nc3ccc(F)cc3c2OCCc2ccccc2)-c2cccn21 [Compound 141b, 7-Fluoro-9-phenethoxy-10H-pyrrolizino[1,2-b]quinolin-10-one] | 0.05 to 5
O=C1c2c(n(Cc3cccc(F)c3)c3c(F)cccc3c2=O)-c2cccn21 [Compound 458a, 5-Fluoro-4-(3-fluorobenzyl)-9H-pyrrolizino[1,2-b]quinoline-9,10(4H)-dione] | 0.05 to 5
N#Cc1cccc(COc2c3c(nc4ccccc24)-c2cccn2C3=O)c1 [Compound 597b, 3-(((10-oxo-10H-pyrrolizino[1,2-b]quinolin-9-yl)oxy)methyl)benzonitrile] | 0.05 to 5
CC(C)=CCn1c2c(c(=O)c3cc(F)ccc31)C(=O)n1cccc1-2 [Compound 112a, 7-Fluoro-4-(3-methylbut-2-en-1-yl)-9H-pyrrolizino[1,2-b]quinoline-9,10(4H)-dione] | 0.05 to 5

system: human dermal fibroblasts CCC-ESF-1; assay: Anti-fibrosis activity test: inhibition of proliferation of human dermal fibroblasts CCC-ESF-1 (CCK-8); assay type: cell-based; conditions: Fibroblast; human dermal fibroblasts CCC-ESF-1, CCK-8, 48 hours
Summary of the method: as §1

Compound | IC50 [mM]
O=C1c2c(nc3cc(F)ccc3c2OCc2ccc(Cl)cc2)-c2cccn21 [Compound 496b, 9-((4-chlorobenzyl)oxy)-6-fluoro-10H-pyrrolizino[1,2-b]quinolin-10-one] | 0.05 to 5
O=C1c2c(nc3ccc(F)cc3c2OCCc2ccccc2)-c2cccn21 [Compound 141b, 7-Fluoro-9-phenethoxy-10H-pyrrolizino[1,2-b]quinolin-10-one] | 5 to 20
O=C1c2c(n(Cc3cccc(F)c3)c3c(F)cccc3c2=O)-c2cccn21 [Compound 458a, 5-Fluoro-4-(3-fluorobenzyl)-9H-pyrrolizino[1,2-b]quinoline-9,10(4H)-dione] | 0.05 to 5
N#Cc1cccc(COc2c3c(nc4ccccc24)-c2cccn2C3=O)c1 [Compound 597b, 3-(((10-oxo-10H-pyrrolizino[1,2-b]quinolin-9-yl)oxy)methyl)benzonitrile] | 0.05 to 5
CC(C)=CCn1c2c(c(=O)c3cc(F)ccc31)C(=O)n1cccc1-2 [Compound 112a, 7-Fluoro-4-(3-methylbut-2-en-1-yl)-9H-pyrrolizino[1,2-b]quinoline-9,10(4H)-dione] | 0.05 to 5

system: human hepatic stellate cells LX-2; assay: Anti-fibrosis activity test: inhibition of proliferation of human hepatic stellate cells LX-2 (CCK-8); assay type: cell-based; conditions: Homo sapiens, 48 h, human hepatic stellate cells LX-2, CCK-8, 48 hours
Summary of the method: as §1

Compound | IC50 [mM]
O=C1c2c(nc3cc(F)ccc3c2OCc2ccc(Cl)cc2)-c2cccn21 [Compound 496b, 9-((4-chlorobenzyl)oxy)-6-fluoro-10H-pyrrolizino[1,2-b]quinolin-10-one] | 0.05 to 5
O=C1c2c(nc3ccc(F)cc3c2OCCc2ccccc2)-c2cccn21 [Compound 141b, 7-Fluoro-9-phenethoxy-10H-pyrrolizino[1,2-b]quinolin-10-one] | 0.05 to 5
O=C1c2c(n(Cc3cccc(F)c3)c3c(F)cccc3c2=O)-c2cccn21 [Compound 458a, 5-Fluoro-4-(3-fluorobenzyl)-9H-pyrrolizino[1,2-b]quinoline-9,10(4H)-dione] | 0.05 to 5
N#Cc1cccc(COc2c3c(nc4ccccc24)-c2cccn2C3=O)c1 [Compound 597b, 3-(((10-oxo-10H-pyrrolizino[1,2-b]quinolin-9-yl)oxy)methyl)benzonitrile] | 0.05 to 5
CC(C)=CCn1c2c(c(=O)c3cc(F)ccc31)C(=O)n1cccc1-2 [Compound 112a, 7-Fluoro-4-(3-methylbut-2-en-1-yl)-9H-pyrrolizino[1,2-b]quinoline-9,10(4H)-dione] | 0.05 to 5

system: human embryonic lung fibroblast IMR-90; assay: Anti-fibrosis activity test: inhibition of proliferation of human embryonic lung fibroblast IMR-90 (CCK-8); assay type: cell-based; conditions: human embryonic lung fibroblast IMR-90, CCK-8, 48 hours
Summary of the method: as §1

Compound | IC50 [mM]
O=C1c2c(nc3cc(F)ccc3c2OCc2ccc(Cl)cc2)-c2cccn21 [Compound 496b, 9-((4-chlorobenzyl)oxy)-6-fluoro-10H-pyrrolizino[1,2-b]quinolin-10-one] | 0.05 to 5
O=C1c2c(nc3ccc(F)cc3c2OCCc2ccccc2)-c2cccn21 [Compound 141b, 7-Fluoro-9-phenethoxy-10H-pyrrolizino[1,2-b]quinolin-10-one] | 0.05 to 5
O=C1c2c(n(Cc3cccc(F)c3)c3c(F)cccc3c2=O)-c2cccn21 [Compound 458a, 5-Fluoro-4-(3-fluorobenzyl)-9H-pyrrolizino[1,2-b]quinoline-9,10(4H)-dione] | 0.05 to 5
N#Cc1cccc(COc2c3c(nc4ccccc24)-c2cccn2C3=O)c1 [Compound 597b, 3-(((10-oxo-10H-pyrrolizino[1,2-b]quinolin-9-yl)oxy)methyl)benzonitrile] | 0.05 to 5
CC(C)=CCn1c2c(c(=O)c3cc(F)ccc31)C(=O)n1cccc1-2 [Compound 112a, 7-Fluoro-4-(3-methylbut-2-en-1-yl)-9H-pyrrolizino[1,2-b]quinoline-9,10(4H)-dione] | 0.05 to 5

system: human lung fibroblasts HFL1; assay: Anti-fibrosis activity test: inhibition of proliferation of human lung fibroblasts HFL1 (CCK-8); assay type: cell-based; conditions: Homo sapiens, HFL1, 48 h, human lung fibroblasts HFL1, CCK-8, 48 hours
Summary of the method: as §1

Compound | IC50 [mM]
O=C1c2c(nc3cc(F)ccc3c2OCc2ccc(Cl)cc2)-c2cccn21 [Compound 496b, 9-((4-chlorobenzyl)oxy)-6-fluoro-10H-pyrrolizino[1,2-b]quinolin-10-one] | 0.05 to 5
O=C1c2c(nc3ccc(F)cc3c2OCCc2ccccc2)-c2cccn21 [Compound 141b, 7-Fluoro-9-phenethoxy-10H-pyrrolizino[1,2-b]quinolin-10-one] | 0.05 to 5
O=C1c2c(n(Cc3cccc(F)c3)c3c(F)cccc3c2=O)-c2cccn21 [Compound 458a, 5-Fluoro-4-(3-fluorobenzyl)-9H-pyrrolizino[1,2-b]quinoline-9,10(4H)-dione] | 0.05 to 5
N#Cc1cccc(COc2c3c(nc4ccccc24)-c2cccn2C3=O)c1 [Compound 597b, 3-(((10-oxo-10H-pyrrolizino[1,2-b]quinolin-9-yl)oxy)methyl)benzonitrile] | 0.05 to 5
CC(C)=CCn1c2c(c(=O)c3cc(F)ccc31)C(=O)n1cccc1-2 [Compound 112a, 7-Fluoro-4-(3-methylbut-2-en-1-yl)-9H-pyrrolizino[1,2-b]quinoline-9,10(4H)-dione] | 0.05 to 5

system: mouse macrophages (RAW264.7); assay: Lipopolysaccharide-induced NO secretion in macrophages (Griess); assay type: cell-based; conditions: Mus musculus, RAW264.7, 24 h, RAW264.7, LPS 1 μg/ml, a/b isomers given as first/second symbol, read-out: IC50 (μM), inhibition of lipopolysaccharide-induced NO secretion in macrophages
Summary of the method: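 RAW264.7 macrophages in DMEM with 10% FBS received test samples at several concentrations and were stimulated with 1 μg/ml LPS for 24 h. NO in the supernatant was measured with the Griess reagent at 548 nm, […].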

Compound | IC50 [µM]
O=C1c2c(nc3cc(F)ccc3c2OCc2ccc(Cl)cc2)-c2cccn21 [Compound 496b, 9-((4-chlorobenzyl)oxy)-6-fluoro-10H-pyrrolizino[1,2-b]quinolin-10-one] | 1 to 10
O=C1c2c(nc3ccc(F)cc3c2OCCc2ccccc2)-c2cccn21 [Compound 141b, 7-Fluoro-9-phenethoxy-10H-pyrrolizino[1,2-b]quinolin-10-one] | 1 to 10
O=C1c2c(n(Cc3cccc(F)c3)c3c(F)cccc3c2=O)-c2cccn21 [Compound 458a, 5-Fluoro-4-(3-fluorobenzyl)-9H-pyrrolizino[1,2-b]quinoline-9,10(4H)-dione] | 1 to 10
N#Cc1cccc(COc2c3c(nc4ccccc24)-c2cccn2C3=O)c1 [Compound 597b, 3-(((10-oxo-10H-pyrrolizino[1,2-b]quinolin-9-yl)oxy)methyl)benzonitrile] | 1 to 10
CC(C)=CCn1c2c(c(=O)c3cc(F)ccc31)C(=O)n1cccc1-2 [Compound 112a, 7-Fluoro-4-(3-methylbut-2-en-1-yl)-9H-pyrrolizino[1,2-b]quinoline-9,10(4H)-dione] | 1 to 10
